{"source": "patent EP0237239A2", "about": "“New compounds” (THE WELLCOME FOUNDATION LIMITED, priority 1986, dated 1987)", "biological_target": "T1, angiotension converting enzyme (Cavia porcellus, UniProt H0UWL7)", "T1 construct": "from tissue; host or cells: guinea pig ileum", "T1 sequence (H0UWL7 33-1302)": "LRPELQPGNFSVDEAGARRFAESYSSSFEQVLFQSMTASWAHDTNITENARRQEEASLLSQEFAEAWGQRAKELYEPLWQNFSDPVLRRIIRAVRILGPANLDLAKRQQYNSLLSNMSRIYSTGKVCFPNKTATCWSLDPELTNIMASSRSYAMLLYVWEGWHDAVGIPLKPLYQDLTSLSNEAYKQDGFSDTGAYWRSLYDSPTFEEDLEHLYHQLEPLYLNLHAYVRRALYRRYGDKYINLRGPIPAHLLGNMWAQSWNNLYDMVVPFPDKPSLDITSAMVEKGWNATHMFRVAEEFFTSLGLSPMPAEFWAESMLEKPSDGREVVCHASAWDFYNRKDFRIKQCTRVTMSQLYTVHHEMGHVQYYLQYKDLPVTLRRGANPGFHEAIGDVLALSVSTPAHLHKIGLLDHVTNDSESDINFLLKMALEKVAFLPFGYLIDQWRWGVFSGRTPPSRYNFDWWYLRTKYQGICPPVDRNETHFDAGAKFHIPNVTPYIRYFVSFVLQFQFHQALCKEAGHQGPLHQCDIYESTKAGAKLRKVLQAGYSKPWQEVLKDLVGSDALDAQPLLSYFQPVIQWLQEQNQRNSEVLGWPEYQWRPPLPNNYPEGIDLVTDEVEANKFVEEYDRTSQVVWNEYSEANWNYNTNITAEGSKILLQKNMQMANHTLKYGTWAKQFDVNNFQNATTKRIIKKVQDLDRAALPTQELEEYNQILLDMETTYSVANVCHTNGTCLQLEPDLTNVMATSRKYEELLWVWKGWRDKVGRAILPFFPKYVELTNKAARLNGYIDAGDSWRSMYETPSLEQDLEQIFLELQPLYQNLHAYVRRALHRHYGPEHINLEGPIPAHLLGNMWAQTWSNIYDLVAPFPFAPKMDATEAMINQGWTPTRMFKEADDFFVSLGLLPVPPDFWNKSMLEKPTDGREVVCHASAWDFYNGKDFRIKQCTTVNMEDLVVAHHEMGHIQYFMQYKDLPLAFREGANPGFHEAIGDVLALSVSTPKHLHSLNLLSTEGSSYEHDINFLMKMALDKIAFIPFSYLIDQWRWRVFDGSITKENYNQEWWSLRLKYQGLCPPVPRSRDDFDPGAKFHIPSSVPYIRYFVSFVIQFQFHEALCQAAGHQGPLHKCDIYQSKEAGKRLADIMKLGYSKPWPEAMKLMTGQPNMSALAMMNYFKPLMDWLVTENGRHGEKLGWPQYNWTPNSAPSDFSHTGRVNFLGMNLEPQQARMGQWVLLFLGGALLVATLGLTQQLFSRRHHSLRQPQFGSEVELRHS", "experiment": "angiotensin converting enzyme inhibition in guinea pig ileum (inhibition of contractile responses to Angiotensin I)", "assay_type": "cell-based", "conditions": "dose-dependent inhibition of contractile responses to Angiotensin I, in vitro, read-out: EC50 (the source's name)", "description": "(b) ACE inhibition in vitro\nIn any assay for angiotension converting enzyme inhibition in guinea pig ileum, dose-dependent inhibition of contractile responses to Angiotensin I gave the following results: […]", "note": "Structures can show the parent of a compound that is named as a salt."}
{"smiles": "CC(C)NCC(O)COc1cccc2c(OCC(=O)NCCCC[C@H](NC(C)C(=O)N3CCC[C@H]3C(=O)O)C(=O)O)cccc12", "note": "(stereo partly drawn) [Example 2, N-(l(S)-Carboxy-5-(2-[5-(2(S,R)-hydroxy-3-isopropylaminopropoxy)-naphth-1-yloxy]acetamido)pentyl)-(S,R)-alanyl-(S)-proline dihydrochloride acetate hemihydrate]", "values": [{"measurement": "IC50", "value": 0.0135, "unit": "µM"}]}
{"smiles": "CC(C)NCC(O)COc1cccc2ccc(CNCCCC[C@H](NC(C)C(=O)N3CCC[C@H]3C(=O)O)C(=O)O)cc12", "note": "(stereo partly drawn) [Example 5, N-(1(S)-Carboxy-5-[8-(2(S,R)-hydroxy-3-isopropylaminopropoxy)naphth-2-ylmethylamino]pentyl)-(S,R)-alanyl-(S)-proline tristrifluoroacetate]", "values": [{"measurement": "IC50", "value": 0.0096, "unit": "µM"}]}
